Reference: PubChem BioAssay AID2060502 (Molecular Pharmacology Branch, DTP, NCI, 2025)
Where “and” joins values, the source holds several entries; their conditions need not be identical. Identical values can stand only once. Blank lines part the entries; values can stand above or below the compound they belong to.

System: 885724-159-R-J1-PDC complex spheroid viability
Assay: Anticancer human tumor 885724-159-R-J1-PDC patient-derived pancreatic adenocarcinoma cell line growth inhibition [GQUAD]
Details: for viability, T/C: stronger effect = lower value
Description: DNA G-quadruplex Stabilizer Agents in Combinations in Complex Spheroids
A high-throughput screen of multi-cell type tumor spheroids was designed to identify active combinations of DNA G-quadruplex stabilizer agents and targeted small molecules. Complex spheroids include a stromal component modeled by human endothelial cells (HUVEC) and fibroblasts modeled by human mesenchymal stem cells (MSCs). The concentration ranges selected for each drug and investigational agent were based upon clinically achievable concentrations if the clinical Cmax of the agent was known.
Compounds. The drugs and investigational agents: pidnarulex (CX-5461; NSC782164), APTO-253 (NSC789042), BRACO-19 (NSC847499), peposertib (NSC802822), ceralasertib (NSC780249), elimusertib (NSC800525), camonsertib (NSC841442), AZD-1390 (NSC803789), olaparib (NSC753686), talazoparib (NSC767125), ART-558 (NSC835418), sotorasib (NSC818433), MRTX-1133 (NSC836407), SN-38 (NSC673596), topotecan (NSC609699), etoposide (NSC141540), doxorubicin (NSC123127), gemcitabine (NSC613327), 5-fluorouracil (NSC19893), paclitaxel (NSC125973), vemurafenib (NSC761431), panobinostat (NSC761190), R-306465 (JNJ-16241199; NSC773264), adavosertib (NSC754352), TP-3654 (NSC805149), carboplatin (NSC241240), KSQ-4279 (NSC840948), and staurosporine (NSC755774) were obtained from the National Cancer Institute (NCI) Developmental Therapeutics Program Chemical Repository (34). The FDA-approved anticancer drug set is available from the NCI Developmental Therapeutics Program. […] The stock solutions were prepared in dimethyl sulfoxide (DMSO, Sigma-Aldrich, St. Louis, MO, cat. D2650) at 800-fold the tested concentration and stored at -70 degrees C prior to their use. All drugs and investigational agents were tested over a range starting from a high concentration at or near the clinical Cmax and decreasing in half-log increments. If the clinical Cmax for an agent had not been determined, the highest concentration tested was 10 microM.
2.3 Cell Culture. All cells were maintained in an incubator at 37 degrees C and 5% CO2 with 95% humidity. The PDC lines were cultured according to standard operating procedures established by the NCI PDMR. All PDCs were thawed and cultured in Matrigel-coated flasks prepared with a working solution of 1X Ham's F-12 nutrient mix, without supplementation (Invitrogen, cat. 11765054), 100 U/mL penicillin-streptomycin (Invitrogen, cat. 15140122), and 2.5% Matrigel (Corning Inc., cat. 354248) for the first three passages. The 857933-349-R-J2-PDC line was cultured in 6C/Colon 1B media, which includes advanced DMEM/F-12 (Thermo Fisher Scientific, cat. 12634028), 10 mM HEPES (Thermo Fisher Scientific, cat. 15630080), 1X GlutaMAX supplement (Thermo Fisher Scientific, cat. 35050061), 0.1 mg/mL primocin (InvivoGen, cat. ant-pm-2), 10% defined fetal bovine serum, heat inactivated (HyClone Laboratories Inc., cat. SH30070.03HI), 50% L-WRN conditioned media (ATCC, cat. CRL-3276), 1.25 mM N-Acetyl-L-cysteine (Sigma-Aldrich, cat. A9165), 10 mM nicotinamide (Sigma-Aldrich, cat. N0636), 1X B-27 supplement (Thermo Fisher Scientific, cat. 17504044), 1X N-2 supplement (Thermo Fisher Scientific, cat. 17502048), 10 microM Y-27632 dihydrochloride (Tocris Bioscience, cat. 1254), and 50 ng/mL human EGF recombinant protein (Thermo Fisher Scientific, cat. PHG0311). The 485176-168-R4-J1-PDC line was cultured in Panc media, which includes all 6C/Colon 1B media components plus 100 ng/mL human FGF-10 (Thermo Fisher Scientific, cat. 100-26), 500 nM SB-431542 (Selleckchem, cat. S1067), and gastrin (Tocris, cat. 3006).
[…]
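Note: spheroids exposed to agents for seven days before readout.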
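Throughout, for viability, T/C: percent of vehicle control viability where 100% = DMSO wells.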

IC50 (curve of compound): > 10 µM
Structure (SMILES): CCCS(=O)(=O)Nc1ccc(F)c(C(=O)c2c[nH]c3ncc(-c4ccc(Cl)cc4)cc23)c1F
viability, T/C (compound 0.0316 µM): 98.5% and 105% and 90.7%
viability, T/C (compound 0.1 µM): 90.2% and 105% and 92.3%
viability, T/C (compound 0.316 µM): 111% and 124% and 116%
viability, T/C (compound 1 µM): 136% and 138% and 124%
viability, T/C (compound 3.16 µM): 148% and 137% and 134%
viability, T/C (compound 10 µM): 82% and 77.5% and 78.7%

IC50 (curve of compound): > 10 µM
Structure (SMILES): CC(=O)O[C@H]1C(=O)[C@@]2(C)[C@H]([C@H](OC(=O)c3ccccc3)[C@]3(O)C[C@H](OC(=O)[C@H](O)[C@@H](NC(=O)c4ccccc4)c4ccccc4)C(C)=C1C3(C)C)[C@]1(OC(C)=O)CO[C@@H]1C[C@@H]2O
viability, T/C (compound 0.0316 µM): 100% and 92% and 97.8%
viability, T/C (compound 0.1 µM): 66.6% and 80.5% and 89.4%
viability, T/C (compound 0.316 µM): 82.2% and 93.6% and 90.7%
viability, T/C (compound 1 µM): 83.6% and 86.1% and 96.7%
viability, T/C (compound 3.16 µM): 89.6% and 91% and 100%
viability, T/C (compound 10 µM): 93% and 104% and 107%

IC50 (curve of compound): > 10 µM
Structure (SMILES): COc1cc(C2c3cc4c(cc3C(OC3OC5COC(C)OC5C(O)C3O)C3COC(=O)C23)OCO4)cc(OC)c1O (stereo unspecified)
viability, T/C (compound 0.0316 µM): 91.7% and 104% and 96.9%
viability, T/C (compound 0.1 µM): 109% and 103% and 96.3%
viability, T/C (compound 0.316 µM): 97.6% and 98.6% and 86.9%
viability, T/C (compound 1 µM): 88.8% and 96.8% and 89%
viability, T/C (compound 3.16 µM): 88.5% and 77.7% and 77.3%
viability, T/C (compound 10 µM): 85.7% and 76.8% and 76.7%

Structure (SMILES): C#Cc1c(F)ccc2cc(O)cc(-c3ncc4c(N5CC6CCC(C5)N6)nc(OCC56CCCN5CC(F)C6)nc4c3F)c12 (stereo unspecified) + Cc1[nH]c2ccc(F)cc2c1-c1nc2c3cccnc3c3ncccc3c2[nH]1
IC50 (curve of first compound, second compound 0.0316 µM): 4.05 µM
IC50 (curve of first compound, second compound 0.1 µM): 3.75 µM
IC50 (curve of first compound, second compound 0.316 µM): 4.07 µM
IC50 (curve of first compound, second compound 1 µM): 3.55 µM
IC50 (curve of first compound, second compound 3.16 µM): < 0.0316 µM
IC50 (curve of first compound, second compound 10 µM): 4.5 µM
viability, T/C (second compound 0.0316 µM, first compound 0.0316 µM): 97%
viability, T/C (second compound 0.0316 µM, first compound 0.1 µM): 89.2%
viability, T/C (second compound 0.0316 µM, first compound 0.316 µM): 90.3%
viability, T/C (second compound 0.0316 µM, first compound 1 µM): 76.1%
viability, T/C (second compound 0.0316 µM, first compound 3.16 µM): 57.5%
viability, T/C (second compound 0.0316 µM, first compound 10 µM): 23.4%
viability, T/C (second compound 0.1 µM, first compound 0.0316 µM): 101%
viability, T/C (second compound 0.1 µM, first compound 0.1 µM): 97.8%
viability, T/C (second compound 0.1 µM, first compound 0.316 µM): 102%
viability, T/C (second compound 0.1 µM, first compound 1 µM): 87.4%
viability, T/C (second compound 0.1 µM, first compound 3.16 µM): 54.6%
viability, T/C (second compound 0.1 µM, first compound 10 µM): 24.9%
viability, T/C (second compound 0.316 µM, first compound 0.0316 µM): 94.5%
viability, T/C (second compound 0.316 µM, first compound 0.1 µM): 80.4%
viability, T/C (second compound 0.316 µM, first compound 0.316 µM): 85.4%
viability, T/C (second compound 0.316 µM, first compound 1 µM): 62.9%
viability, T/C (second compound 0.316 µM, first compound 3.16 µM): 63.1%
viability, T/C (second compound 0.316 µM, first compound 10 µM): 28%
viability, T/C (second compound 1 µM, first compound 0.0316 µM): 72.5%
viability, T/C (second compound 1 µM, first compound 0.1 µM): 69.2%
viability, T/C (second compound 1 µM, first compound 0.316 µM): 75%
viability, T/C (second compound 1 µM, first compound 1 µM): 59.4%
viability, T/C (second compound 1 µM, first compound 3.16 µM): 54.2%
viability, T/C (second compound 1 µM, first compound 10 µM): 29.5%
viability, T/C (second compound 3.16 µM, first compound 0.0316 µM): 18.4%
viability, T/C (second compound 3.16 µM, first compound 0.1 µM): 8.81%
viability, T/C (second compound 3.16 µM, first compound 0.316 µM): 12.7%
viability, T/C (second compound 3.16 µM, first compound 1 µM): 11.5%
viability, T/C (second compound 3.16 µM, first compound 3.16 µM): 9.79%
viability, T/C (second compound 3.16 µM, first compound 10 µM): 6.07%
viability, T/C (second compound 10 µM, first compound 0.0316 µM): 63.1%
viability, T/C (second compound 10 µM, first compound 0.1 µM): 75.8%
viability, T/C (second compound 10 µM, first compound 0.316 µM): 66%
viability, T/C (second compound 10 µM, first compound 1 µM): 61.2%
viability, T/C (second compound 10 µM, first compound 3.16 µM): 63.2%
viability, T/C (second compound 10 µM, first compound 10 µM): 21.7%

IC50 (curve of compound): > 10 µM
Structure (SMILES): CC1COCCN1c1cc(C2(S(C)(=N)=O)CC2)nc(-c2ccnc3[nH]ccc23)n1 (stereo unspecified)
viability, T/C (compound 0.0316 µM): 105% (2×) and 97.6%
viability, T/C (compound 0.1 µM): 105% and 96.7% and 98.2%
viability, T/C (compound 0.316 µM): 105% and 94.7% and 99.6%
viability, T/C (compound 1 µM): 97.2% and 88.8% and 98.5%
viability, T/C (compound 3.16 µM): 84.7% and 82.4% and 109%
viability, T/C (compound 10 µM): 65.2% and 74.3% and 86.2%

IC50 (curve of compound): 0.298 µM and > 0.316 µM and 0.242 µM
Structure (SMILES): Cc1[nH]c2ccccc2c1CCNCc1ccc(/C=C/C(=O)NO)cc1
viability, T/C (compound 0.000999 µM): 92.3% and 106% and 93.5%
viability, T/C (compound 0.00316 µM): 91.4% and 98.9% and 103%
viability, T/C (compound 0.00999 µM): 95.6% and 86.5% and 91.7%
viability, T/C (compound 0.0316 µM): 108% and 83.9% and 98.7%
viability, T/C (compound 0.0999 µM): 95.6% and 86.5% and 74.5%
viability, T/C (compound 0.316 µM): 47.5% and 47.9% and 42.7%

IC50 (curve of compound): 1.01 µM and 2.21 µM and 1.99 µM
Structure (SMILES): CC1COCCN1c1cc(C2(O)CC3CCC(C2)O3)c2cnn(-c3ccn[nH]3)c2n1 (stereo unspecified)
viability, T/C (compound 0.0316 µM): 86.4% and 103% and 91.5%
viability, T/C (compound 0.1 µM): 85.4% and 80.9% and 79.5%
viability, T/C (compound 0.316 µM): 74.2% and 74.5% and 71.8%
viability, T/C (compound 1 µM): 48.6% and 56% and 53.5%
viability, T/C (compound 3.16 µM): 37.3% and 46.2% and 47.5%
viability, T/C (compound 10 µM): 28.3% and 38.1% and 36.4%

IC50 (curve of compound): > 10 µM
Structure (SMILES): O=c1[nH]cc(F)c(=O)[nH]1
viability, T/C (compound 0.0316 µM): 96.3% and 85.1% and 106%
viability, T/C (compound 0.1 µM): 100% and 95.1% and 93.2%
viability, T/C (compound 0.316 µM): 96.9% and 89% and 95.5%
viability, T/C (compound 1 µM): 91.2% and 94% and 92.8%
viability, T/C (compound 3.16 µM): 94.3% and 94.6% and 93.9%
viability, T/C (compound 10 µM): 88.3% and 87.7% and 92%
